Test results from patent US20260248087A1, “GENERATING DOUBLED HAPLOID PLANTS” (Syngenta Crop Protection AG, priority 2023, published 2026).

Columns and labels:
[1] = tested on: GST27; assay: GST27 induction, metcamifen pre-treatment of isolated embryos; type: cell-based, maize; details: for GST27 before doubling, Mean: embryo pre-treatment 10 mg/L in MS media; for GST27 Mean: embryo pre-treatment in MS media
Description: For the examples below, GST27 was used as a quick indicator for treatment effectiveness.
Embryos from maize ears were isolated and treated with metcamifen prior to a colchicine doubling treatment. Isolated embryos plated on filter paper were pre-treated with a formulation of metcamifen at concentrations of 0, 10, 100, and 1000 mg/L in Murashige and Skoog Medium (MS media) for a duration of 1, 3, 5, or 7 days at 6° C. with 150 PAR light. GST27 induction was measured after pre-treatment at each time point and again at the end of the colchicine treatment. Resulting embryos were germinated, and the percentage of embryos successfully transferred to soil (percent potted rate) was measured as an indicator of plant health and pre-treatment effectiveness. GST27 was induced by metcamifen at a medium level ([…] of TSP), but higher than ear pre-treatment that was less than 10 ng/ml of TSP.
The addition of 10% DMSO in the metcamifen formulation at 10, 100, and 1000 mg/L in the MS media was tested to potentially increase the uptake of metcamifen. This test was done at temperatures of both 6° C. and 20° C. over a course of 0 to 4 days. There was no increase in GST27 expression with the 10% DMSO addition at either temperature.
Embryo pre-treatment with metcamifen at 10 mg/L was tested at temperatures of 6° C. and 20° C. for 1 day to measure the impact of temperature on embryo health.

[2] = tested on: isolated embryos; assay: Potted rate, transplant rate and seedling height, thiamethoxam co-treatment during colchicine doubling; type: in vivo, maize
Source text: As used herein, the term “potted rate” or “potting rate” refers to the percent of germinated embryos successfully transferred to soil from total treated haploid embryos. The “potted rate” is used as an indication of plant health in monitoring the success of recovery and growth after treatment of haploids. As used herein, the term “transplant rate” refers to the survival of healthy plants after embryos were germinated and transferred to soil.
In addition to testing of safeners such as metcamifen, testing the effects of other compounds, such as thiamethoxam (TMX), were completed. Isolated embryos were co-treated with TMX during colchicine doubling in the doubling media. The co-treatments were allowed to incubate for 24 or 48 hours. Four genotypes representing two heterotic groups were tested with replication. The effect on potting rate from in vitro culture was evaluated.
Initial testing measured the effect of TMX at concentrations of 0, 150, or 750 mg/L for 24 or 48 hours. […] The strongest effect of TMX co-treatment seen with the 48-hour duration was at 750 mg/L TMX compared to the control.
Further testing was done and TMX was applied to isolated embryos at levels of 0, 750, 1500, 2000 mg/L during colchicine co-treatment. The co-treatments were incubated for 24 or 48 hours.
TMX was applied to isolated embryos at levels of 0, 2000, 4000, 8000 mg/L during colchicine co-treatment. The co-treatments were incubated for durations of 24 or 48 hours.
TMX was applied to isolated embryos at levels of 0, 2000, 4000, or 6000 mg/L during colchicine co-treatment. The co-treatments were incubated for durations of 24 or 48 hours. […] The highest percent transplanted rates were 86% and 83% for co-treatments 4000 mg/L at 24 hours and 6000 mg/L at 48 hours, respectively (see Table 8).

[3] = Table 6: co-treatment with colchicine, TMX 750 mg/L, 24 hours
[4] = Table 6: co-treatment with colchicine, TMX 750 mg/L, 48 hours
[5] = Table 6: co-treatment with colchicine, TMX 1500 mg/L, 24 hours
[6] = Table 6: co-treatment with colchicine, TMX 1500 mg/L, 48 hours
[7] = Table 6: co-treatment with colchicine, TMX 2000 mg/L, 24 hours
[8] = Table 6: co-treatment with colchicine, TMX 2000 mg/L, 48 hours
[9] = Table 7: co-treatment with colchicine, TMX 2000 mg/L, 24 hours
[10] = Table 7: co-treatment with colchicine, TMX 2000 mg/L, 48 hours
[11] = Table 7: co-treatment with colchicine, TMX 4000 mg/L, 24 hours
[12] = Table 7: co-treatment with colchicine, TMX 4000 mg/L, 48 hours
[13] = Table 7: co-treatment with colchicine, TMX 8000 mg/L, 24 hours
[14] = Table 7: co-treatment with colchicine, TMX 8000 mg/L, 48 hours
[15] = Table 8: co-treatment with colchicine, TMX 2000 mg/L, 24 hours
[16] = Table 8: co-treatment with colchicine, TMX 2000 mg/L, 48 hours
[17] = Table 8: co-treatment with colchicine, TMX 4000 mg/L, 24 hours
[18] = Table 8: co-treatment with colchicine, TMX 4000 mg/L, 48 hours
[19] = Table 8: co-treatment with colchicine, TMX 6000 mg/L, 24 hours
[20] = Table 8: co-treatment with colchicine, TMX 6000 mg/L, 48 hours

Question: `CNC(=O)Nc1ccc(S(=O)(=O)NC(=O)c2ccccc2OC)cc1` [Metcamifen, metcamifen] was tested. Which “GST27 induction in comparison to the control and other doses” value ([1]; 10 mg/L, all time points, 6° C. and 20° C., DMSO test) did it give?
Answer: best GST27 induction

Question: And the “GST27 expression with 10% DMSO addition” value ([1]; 10, 100, 1000 mg/L in MS media, 6° C. and 20° C., 0 to 4 days)?
Answer: no increase

Question: What about the “GST27 before doubling, Mean” value ([1]; 1 day, 6° C.) of the same molecule?
Answer: 8.83 ng/mg TSP

Question: And the “GST27 before doubling, Mean” value ([1]; 1 day, 20° C.)?
Answer: 140 ng/mg TSP

Question: And the “GST27 Mean” value ([1]; 10 mg/L, 1 day, 6° C.)?
Answer: 9 ng/mg TSP

Question: And the “GST27 Mean” value ([1]; 10 mg/L, 3 days, 6° C.)?
Answer: 14 ng/mg TSP

Question: And the “GST27 Mean” value ([1]; 10 mg/L, 5 days, 6° C.)?
Answer: 37 ng/mg TSP

Question: And the “GST27 Mean” value ([1]; 10 mg/L, 7 days, 6° C.)?
Answer: 75 ng/mg TSP

Question: And the “GST27 Mean” value ([1]; 100 mg/L, 1 day, 6° C.)?
Answer: 21 ng/mg TSP

Question: What about the “GST27 Mean” value ([1]; 100 mg/L, 3 days, 6° C.) of the same molecule?
Answer: 30 ng/mg TSP

Question: What about the “GST27 Mean” value ([1]; 100 mg/L, 5 days, 6° C.) of the same molecule?
Answer: 61 ng/mg TSP

Question: What about the “GST27 Mean” value ([1]; 100 mg/L, 7 days, 6° C.) of the same molecule?
Answer: 92 ng/mg TSP

Question: And the “GST27 Mean” value ([1]; 1000 mg/L, 1 day, 6° C.)?
Answer: 11 ng/mg TSP

Question: What about the “GST27 Mean” value ([1]; 1000 mg/L, 3 days, 6° C.) of the same molecule?
Answer: 71 ng/mg TSP

Question: And the “GST27 Mean” value ([1]; 1000 mg/L, 5 days, 6° C.)?
Answer: 60 ng/mg TSP

Question: What about the “GST27 Mean” value ([1]; 1000 mg/L, 7 days, 6° C.) of the same molecule?
Answer: 108 ng/mg TSP

Question: What about the “GST27 induced by metcamifen (medium level)” value ([1]; embryo pre-treatment, 10-1000 mg/L, 1-7 days, 6° C.) of the same molecule?
Answer: < 100 ng/ml of TSP

Question: With `CN1COCN(Cc2cnc(Cl)s2)/C1=N\[N+](=O)[O-]` [TMX, thiamethoxam] as the molecule, how does the “Potted Rate Mean” value [2, 3] read?
Answer: 52%

Question: What about the “Transplant Rate Mean” value [2, 3] of the same molecule?
Answer: 33%

Question: And the “Potted Rate Mean” value [2, 4]?
Answer: 12%

Question: And the “Transplant Rate Mean” value [2, 4]?
Answer: 9%

Question: What about the “Potted Rate Mean” value [2, 5] of the same molecule?
Answer: 65%

Question: And the “Transplant Rate Mean” value [2, 5]?
Answer: 41%

Question: What about the “Potted Rate Mean” value [2, 6] of the same molecule?
Answer: 18%

Question: What about the “Transplant Rate Mean” value [2, 6] of the same molecule?
Answer: 12%

Question: And the “Potted Rate Mean” value [2, 7]?
Answer: 74%

Question: What about the “Transplant Rate Mean” value [2, 7] of the same molecule?
Answer: 50%

Question: And the “Potted Rate Mean” value [2, 8]?
Answer: 32%

Question: And the “Transplant Rate Mean” value [2, 8]?
Answer: 21%

Question: And the “Potted Rate Mean” value [2, 9]?
Answer: 76%

Question: What about the “Transplant Rate Mean” value [2, 9] of the same molecule?
Answer: 73%

Question: And the “Potted Rate Mean” value [2, 10]?
Answer: 22%

Question: And the “Transplant Rate Mean” value [2, 10]?
Answer: 15%

Question: And the “Potted Rate Mean” value [2, 11]?
Answer: 82%

Question: What about the “Transplant Rate Mean” value [2, 11] of the same molecule?
Answer: 79%

Question: And the “Potted Rate Mean” value [2, 12]?
Answer: 67%

Question: What about the “Transplant Rate Mean” value [2, 12] of the same molecule?
Answer: 61%

Question: What about the “Potted Rate Mean” value [2, 13] of the same molecule?
Answer: 47%

Question: And the “Transplant Rate Mean” value [2, 13]?
Answer: 45%

Question: And the “Potted Rate Mean” value [2, 14]?
Answer: 20%

Question: And the “Transplant Rate Mean” value [2, 14]?
Answer: 16%

Question: And the “Potted Rate Mean” value [2, 15]?
Answer: 68%

Question: And the “Transplant Rate Mean” value [2, 15]?
Answer: 62%

Question: What about the “Potted Rate Mean” value [2, 16] of the same molecule?
Answer: 27%

Question: What about the “Transplant Rate Mean” value [2, 16] of the same molecule?
Answer: 26%

Question: And the “Potted Rate Mean” value [2, 17]?
Answer: 90%

Question: What about the “Transplant Rate Mean” value [2, 17] of the same molecule?
Answer: 86%

Question: What about the “Potted Rate Mean” value [2, 18] of the same molecule?
Answer: 63%

Question: What about the “Transplant Rate Mean” value [2, 18] of the same molecule?
Answer: 56%

Question: And the “Potted Rate Mean” value [2, 19]?
Answer: 86%

Question: What about the “Transplant Rate Mean” value [2, 19] of the same molecule?
Answer: 74%

Question: What about the “Potted Rate Mean” value [2, 20] of the same molecule?
Answer: 89%

Question: What about the “Transplant Rate Mean” value [2, 20] of the same molecule?
Answer: 83%

Question: And the “Seedling height (overall plant height)” value ([2]; initial testing, TMX 150 or 750 mg/L, 24-hour and 48-hour)?
Answer: taller

Question: And the potting rate ([2]; initial testing, TMX 150 or 750 mg/L, 24-hour co-treatment)?
Answer: ≥ 80%
